Assay results taken from ChEMBL document CHEMBL1201861, “Genomics of Drug Sensitity in Cancer screening data, Wellcome Trust Sanger Institute”.

Tests used:
Test in all cases: cells
Settings in all cases: Homo sapiens
[1] = test system: NCI-H1838; assay type: functional, cell-based;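 also: growth inhibition of NCI-H1838 cells, determined with a cell viability readout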
Description: SANGER: Inhibition of human NCI-H1838 cell growth in a cell viability assay.

[2] = test system: KS-1; assay type: functional, cell-based;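 also: growth inhibition of KS-1 cells, read out with a cell viability assay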
Description: SANGER: Inhibition of human KS-1 cell growth in a cell viability assay.

[3] = test system: ETK-1; assay type: functional, cell-based;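 also: growth inhibition of human ETK-1 cells, read out with a cell viability assay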
Description: SANGER: Inhibition of human ETK-1 cell growth in a cell viability assay.

[4] = test system: LOX IMVI; assay type: functional, cell-based
Description: SANGER: Inhibition of human LOXIMVI cell growth in a cell viability assay.

[5] = test system: MOLT-16; assay type: functional, cell-based;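 also: growth inhibition of human MOLT-16 cells, read out with a cell viability assay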
Description: SANGER: Inhibition of human MOLT-16 cell growth in a cell viability assay.

[6] = test system: RPMI-8226; assay type: functional, cell-based
Description: SANGER: Inhibition of human RPMI-8226 cell growth in a cell viability assay.

[7] = test system: MHH-PREB-1; assay type: functional, cell-based;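 also: cell viability assay measuring inhibition of proliferation of human MHH-PREB-1 cells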
Description: SANGER: Inhibition of human MHH-PREB-1 cell growth in a cell viability assay.

[8] = test system: LB831-BLC; assay type: functional, cell-based;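 also: growth inhibition of LB831-BLC cells, read out with a cell viability assay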
Description: SANGER: Inhibition of human LB831-BLC cell growth in a cell viability assay.

[9] = test system: KMOE-2; assay type: functional, cell-based;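 also: growth inhibition of human KMOE-2 cells, read out with a cell viability assay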
Description: SANGER: Inhibition of human KMOE-2 cell growth in a cell viability assay.

[10] = test system: SK-PN-DW; assay type: functional, cell-based;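 also: growth inhibition measured with a viability assay on these cells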
Description: SANGER: Inhibition of human SK-PN-DW cell growth in a cell viability assay.

[11] = test system: LS-513; assay type: functional, cell-based
Description: SANGER: Inhibition of human LS-513 cell growth in a cell viability assay.

[12] = test system: EC-GI-10; assay type: functional, cell-based
Description: SANGER: Inhibition of human EC-GI-10 cell growth in a cell viability assay.

[13] = test system: NTERA-2-cl-D1; assay type: functional, cell-based;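 also: inhibition of cell growth, measured with a cell viability assay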
Description: SANGER: Inhibition of human NTERA-S-cl-D1 cell growth in a cell viability assay.

[14] = test system: NOMO-1; assay type: functional, cell-based;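 also: growth inhibition of human NOMO-1 cells measured by a cell viability assay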
Description: SANGER: Inhibition of human NOMO-1 cell growth in a cell viability assay.

[15] = test system: OMC-1; assay type: functional, cell-based;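 also: growth inhibition of the OMC-1 cell line, measured by a cell viability assay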
Description: SANGER: Inhibition of human OMC-1 cell growth in a cell viability assay.

[16] = test system: J-RT3-T3-5; assay type: functional, cell-based;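 also: cell viability assay measuring growth inhibition of human J-RT3-T3-5 cells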
Description: SANGER: Inhibition of human J-RT3-T3-5 cell growth in a cell viability assay.

[17] = test system: HL-60; assay type: functional, cell-based;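 also: growth inhibition of human HL-60 cells, read out with a cell viability assay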
Description: SANGER: Inhibition of human HL-60 cell growth in a cell viability assay.

[18] = test system: 697; assay type: functional, cell-based
Description: SANGER: Inhibition of human 697 cell growth in a cell viability assay.

[19] = test system: IST-SL1; assay type: functional, cell-based;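 also: growth inhibition of human IST-SL1 cells, read out with a cell viability assay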
Description: SANGER: Inhibition of human IST-SL1 cell growth in a cell viability assay.

[20] = test system: GAK; assay type: functional, cell-based;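 also: cell growth inhibition read out by a cell viability assay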
Description: SANGER: Inhibition of human GAK cell growth in a cell viability assay.

[21] = test system: GB-1; assay type: functional, cell-based;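 also: growth of GB-1 cells judged by a viability assay, IC50 marks the concentration inhibiting growth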
Description: SANGER: Inhibition of human GB-1 cell growth in a cell viability assay.

[22] = test system: KU812 cell line; assay type: functional, cell-based;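 also: growth inhibition of KU812 cells, read out with a cell viability assay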
Description: SANGER: Inhibition of human KU812 cell growth in a cell viability assay.

[23] = test system: NCI-H1155; assay type: functional, cell-based;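 also: cell growth inhibition measured by a viability assay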
Description: SANGER: Inhibition of human NCI-H1155 cell growth in a cell viability assay.

[24] = test system: NCI-H1770; assay type: functional, cell-based;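 also: growth inhibition of NCI-H1770 cells determined with a viability readout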
Description: SANGER: Inhibition of human NCI-H1770 cell growth in a cell viability assay.

[25] = test system: KY821; assay type: functional, cell-based;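 also: growth inhibition of human KY821 cells, read out by a cell viability assay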
Description: SANGER: Inhibition of human KY821 cell growth in a cell viability assay.

[26] = test system: A704; assay type: functional, cell-based;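 also: growth inhibition of human A704 cells, read out with a cell viability assay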
Description: SANGER: Inhibition of human A704 cell growth in a cell viability assay.

[27] = test system: SK-MEL-2; assay type: functional, cell-based;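 also: growth inhibition of human SK-MEL-2 cells measured with a cell viability assay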
Description: SANGER: Inhibition of human SK-MEL-2 cell growth in a cell viability assay.

[28] = test system: MC116; assay type: functional, cell-based;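 also: growth inhibition of MC116 cells, read out with a cell viability assay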
Description: SANGER: Inhibition of human MC116 cell growth in a cell viability assay.

[29] = test system: LB1047-RCC; assay type: functional, cell-based;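 also: inhibition of cell growth, determined with a cell viability assay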
Description: SANGER: Inhibition of human LB1047-RCC cell growth in a cell viability assay.

[30] = test system: JAR; assay type: functional, cell-based;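 also: growth inhibition of human JAR cells determined with a cell viability assay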
Description: SANGER: Inhibition of human JAR cell growth in a cell viability assay.

[31] = test system: KNS-42; assay type: functional, cell-based;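 also: growth inhibition of KNS-42 cells, read out with a cell viability assay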
Description: SANGER: Inhibition of human KNS-42 cell growth in a cell viability assay.

[32] = test system: ES5; assay type: functional, cell-based;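 also: growth inhibition of human ES5 cells, read out by a cell viability assay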
Description: SANGER: Inhibition of human ES5 cell growth in a cell viability assay.

[33] = test system: SH-4; assay type: functional, cell-based;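 also: growth inhibition of SH-4 cells, read out with a cell viability assay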
Description: SANGER: Inhibition of human SH-4 cell growth in a cell viability assay.

[34] = test system: NCI-H1648; assay type: functional, cell-based;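 also: cell viability assay measuring inhibition of NCI-H1648 cell growth, from the Sanger screening data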
Description: SANGER: Inhibition of human NCI-H1648 cell growth in a cell viability assay.

[35] = test system: ES1; assay type: functional, cell-based;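 also: growth inhibition of ES1 cells, read out with a cell viability assay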
Description: SANGER: Inhibition of human ES1 cell growth in a cell viability assay.

[36] = test system: HCC2218; assay type: functional, cell-based;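 also: cell viability assay read-out, with IC50 given as the concentration that inhibits growth of the cell line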
Description: SANGER: Inhibition of human HCC2218 cell growth in a cell viability assay.

[37] = test system: NCI-H1355; assay type: functional, cell-based;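 also: growth inhibition of human NCI-H1355 cells, read out by a cell viability assay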
Description: SANGER: Inhibition of human NCI-H1355 cell growth in a cell viability assay.

[38] = test system: no-11; assay type: functional, cell-based;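 also: growth inhibition of human NO-11 cells, read out with a cell viability assay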
Description: SANGER: Inhibition of human no-11 cell growth in a cell viability assay.

[39] = test system: ES8; assay type: functional, cell-based;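 also: growth inhibition of human ES8 cells, read out with a cell viability assay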
Description: SANGER: Inhibition of human ES8 cell growth in a cell viability assay.

[40] = test system: DMS-79; assay type: functional, cell-based;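 also: growth inhibition measured with a cell viability assay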
Description: SANGER: Inhibition of human DMS-79 cell growth in a cell viability assay.

[41] = test system: MZ1-PC; assay type: functional, cell-based;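 also: cell viability assay measuring growth inhibition of human MZ1-PC cells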
Description: SANGER: Inhibition of human MZ1-PC cell growth in a cell viability assay.

[42] = test system: KG-1; assay type: functional, cell-based;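 also: growth inhibition of KG-1 cells, read out by a cell viability assay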
Description: SANGER: Inhibition of human KG-1 cell growth in a cell viability assay.

[43] = test system: MN-60; assay type: functional, cell-based;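 also: growth inhibition of the MN-60 cell line, determined with a cell viability assay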
Description: SANGER: Inhibition of human MN-60 cell growth in a cell viability assay.

[44] = test system: Calu-6; assay type: functional, cell-based;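 also: growth of human Calu-6 cells, read out by a cell viability assay, IC50 marking inhibition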
Description: SANGER: Inhibition of human Calu-6 cell growth in a cell viability assay.

[45] = test system: SNU-C2B; assay type: functional, cell-based;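 also: cell viability readout used to measure compound-driven suppression of SNU-C2B cell proliferation, IC50 marking half-maximal growth inhibition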
Description: SANGER: Inhibition of human SNU-C2B cell growth in a cell viability assay.

[46] = test system: Ramos-2G6-4C10; assay type: functional, cell-based;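 also: growth inhibition of the cell line, measured by a cell viability read-out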
Description: SANGER: Inhibition of human Ramos-2G6-4C10 cell growth in a cell viability assay.

[47] = test system: EOL1; assay type: functional, cell-based;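 also: growth inhibition of EoL-1 cells, read out by a cell viability assay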
Description: SANGER: Inhibition of human EoL-1-cell cell growth in a cell viability assay.

[48] = test system: SBC-1; assay type: functional, cell-based;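 also: cell viability assay measuring growth inhibition of the SBC-1 cell line, IC50 being the concentration that halves growth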
Description: SANGER: Inhibition of human SBC-1 cell growth in a cell viability assay.

[49] = test system: LAN-6; assay type: functional, cell-based;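 also: growth inhibition of LAN-6 cells, determined with a cell viability assay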
Description: SANGER: Inhibition of human LAN-6 cell growth in a cell viability assay.

[50] = test system: HDLM-2; assay type: functional, cell-based;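 also: cell viability assay measuring suppression of HDLM-2 proliferation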
Description: SANGER: Inhibition of human HDLM-2 cell growth in a cell viability assay.

[51] = test system: GOTO; assay type: functional, cell-based;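 also: growth inhibition of GOTO cells, read out by a cell viability assay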
Description: SANGER: Inhibition of human GOTO cell growth in a cell viability assay.

[52] = test system: JVM-2; assay type: functional, cell-based;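 also: growth inhibition of JVM-2 cells determined by a cell viability assay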
Description: SANGER: Inhibition of human JVM-2 cell growth in a cell viability assay.

[53] = test system: OCUB-M; assay type: functional, cell-based;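 also: growth inhibition of the cancer cell line, read out through a cell viability assay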
Description: SANGER: Inhibition of human OCUB-M cell growth in a cell viability assay.

[54] = test system: SNU1; assay type: functional, cell-based
Description: SANGER: Inhibition of human NCI-SNU-1 cell growth in a cell viability assay.

[55] = test system: TK-10; assay type: functional, cell-based
Description: SANGER: Inhibition of human TK10 cell growth in a cell viability assay.

[56] = test system: KARPAS-299; assay type: functional, cell-based
Description: SANGER: Inhibition of human KARPAS-299 cell growth in a cell viability assay.

[57] = test system: RXF 393; assay type: functional, cell-based
Description: SANGER: Inhibition of human RXF393 cell growth in a cell viability assay.

[58] = test system: SHP77; assay type: functional, cell-based, SHP-77
Description: SANGER: Inhibition of human SHP-77 cell growth in a cell viability assay.

[59] = test system: LU-134-A; assay type: functional, cell-based
Description: SANGER: Inhibition of human LU-134-A cell growth in a cell viability assay.

[60] = test system: GI-1; assay type: functional, cell-based
Description: SANGER: Inhibition of human GI-1 cell growth in a cell viability assay.

[61] = test system: KLE; assay type: functional, cell-based
Description: SANGER: Inhibition of human KLE cell growth in a cell viability assay.

[62] = test system: SW 954; assay type: functional, cell-based
Description: SANGER: Inhibition of human SW954 cell growth in a cell viability assay.

[63] = test system: C8166; assay type: functional, cell-based
Description: SANGER: Inhibition of human C8166 cell growth in a cell viability assay.

[64] = test system: SCH; assay type: functional, cell-based
Description: SANGER: Inhibition of human SCH cell growth in a cell viability assay.

[65] = test system: NCI-H69; assay type: functional, cell-based
Description: SANGER: Inhibition of human NCI-H69 cell growth in a cell viability assay.

[66] = test system: GR-ST; assay type: functional, cell-based
Description: SANGER: Inhibition of human GR-ST cell growth in a cell viability assay.

Measured: IC50

CC(O)(CS(=O)(=O)c1ccc(F)cc1)C(=O)Nc1ccc(C#N)c(C(F)(F)F)c1 (stereo unspecified) [BICALUTAMIDE]
> 1.02 µM: [1] | [2] | [3] | [4] | [5] | [6] | [7] | [8] | [9] | [10] | [11] | [12] | [13] | [14] | [15] | [16] | [17] | [18] | [19] | [20] | [21] | [22] | [23] | [24] | [25] | [26] | [27] | [28] | [29] | [30] | [31] | [32] | [33] | [34] | [35] | [36] | [37] | [38] | [39] | [40] | [41] | [42] | [43] | [44] | [45] | [46] | [47] | [48] | [49] | [50] | [51] | [52] | [53] | [54] | [55] | [56] | [57] | [58] | [59] | [60] | [61] | [62] | [63] | [64] | [65] | [66]
